Results taken from US6737383B1, “Herbicidal oxadiazolidines” (priority 1999, dated 2004).

Assays:
[1] = test system: soybean; assay: Test B pre/postemergence soybean; type: in vivo, Glycine max
Procedure, shortened: (§1)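 Response is a visual 0-to-10 score relative to untreated plants, where 0 means no effect and 10 means complete control, taken twelve to sixteen days after application. Treatments went onto soil at planting and onto foliage of 1- to 4-leaf plants, using a surfactant-containing non-phytotoxic solvent.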

[2] = test system: velvetleaf; assay: Test B pre/postemergence velvetleaf; type: in vivo, Abutilon theophrasti
Procedure, shortened: as §1

[3] = test system: morningglory; assay: Test B pre/postemergence morningglory; type: in vivo, Ipomoea hederacea
Procedure, shortened: as §1

[4] = test system: blackgrass; assay: Test B pre/postemergence blackgrass; type: in vivo, Alopecurus myosuroides
Procedure, shortened: as §1

[5] = test system: rice; assay: Test B flood test rice; type: in vivo, Oryza sativa
Procedure, shortened: (§2)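 Read-out is a visual response score from 0 (no effect) to 10 (complete control), assigned by comparison with untreated controls. Treatment was applied at the 2-leaf stage, and plants stayed in the greenhouse for twelve to sixteen days before scoring.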

[6] = test system: sugar beet; assay: Test B pre/postemergence sugar beet; type: in vivo, Beta vulgaris
Procedure, shortened: as §1

[7] = test system: surinam grass; assay: Test B pre/postemergence surinam grass; type: in vivo, Brachiaria decumbens
Procedure, shortened: as §1

[8] = test system: smallflower flatsedge; assay: Test B flood test smallflower flatsedge; type: in vivo, Cyperus difformis
Procedure, shortened: as §2

[9] = test system: purple nutsedge; assay: Test B pre/postemergence purple nutsedge; type: in vivo, Cyperus rotundus
Procedure, shortened: as §1

[10] = test system: giant foxtail; assay: Test B pre/postemergence giant foxtail; type: in vivo, Setaria faberii
Procedure, shortened: as §1

[11] = test system: duck salad; assay: Test B flood test duck salad; type: in vivo, Heteranthera limosa
Procedure, shortened: as §2

[12] = test system: rape; assay: Test B pre/postemergence rape; type: in vivo, Brassica napus
Procedure, shortened: as §1

[13] = test system: pigweed; assay: Test B pre/postemergence pigweed; type: in vivo, Amaranthus retroflexus
Procedure, shortened: as §1

[14] = test system: bedstraw; assay: Test B pre/postemergence bedstraw; type: in vivo, Galium aparine
Procedure, shortened: as §1

[15] = test system: bamyardgrass; assay: Test B flood test barnyardgrass; type: in vivo, Echinochloa crus-galli
Procedure, shortened: as §2

[16] = test system: corn; assay: Test B pre/postemergence corn; type: in vivo, Zea mays
Procedure, shortened: as §1

[17] = Preemergence, Rate 62 g/ha, scale of 0 to 10 where 0 is no effect and 10 is complete control
[18] = Preemergence, Rate 250 g/ha, scale of 0 to 10 where 0 is no effect and 10 is complete control
[19] = Preemergence, Rate 500 g/ha, scale of 0 to 10 where 0 is no effect and 10 is complete control
[20] = Rate 62 g/ha, Postemergence, scale of 0 to 10 where 0 is no effect and 10 is complete control
[21] = Rate 125 g/ha, Postemergence, scale 0 to 10
[22] = Rate 125 g/ha, Preemergence, scale of 0 to 10 where 0 is no effect and 10 is complete control
[23] = Rate 500 g/ha, Postemergence, scale 0 to 10
[24] = Rate 62 g/ha, headed Pre-emergence (flood test species), scale 0 to 10 (0 no effect, 10 complete control)
[25] = Rate 125 g/ha, Pre-emergence, flood test species, scale 0 to 10 where 0 is no effect and 10 is complete control
[26] = Rate 250 g/ha, Pre-emergence, flood-test species, scale 0 to 10, 0 is no effect, 10 is complete control
[27] = Rate 500 g/ha, Pre-emergence, flood test species, scale 0 to 10 (0 no effect, 10 complete control)

CC(C)N(C(=O)n1oc(=O)n(CCC(F)=C(F)F)c1=O)c1ccc(F)cc1 [Compound 218]
0: Soybean plant response rating [1, 17] | Velvetleaf plant response rating [2, 17] | Velvetleaf plant response rating [2, 18] | Velvetleaf plant response rating [2, 20] | Velvetleaf plant response rating [2, 21] | Velvetleaf plant response rating [2, 22] | Morningglory plant response rating [3, 17] | Morningglory plant response rating [3, 18] | Plant response rating, Morningglory [3, 19] | Morningglory plant response rating [3, 22] | Rice plant response rating [5, 24] | Rice plant response rating [5, 25] | Rice plant response rating [5, 26] | Rice plant response rating [5, 27] | Sugarbeets plant response rating [6, 17] | B. signalgrass plant response rating [7, 17] | B. signalgrass plant response rating [7, 20] | B. signalgrass plant response rating ([7]; Rate 125 g/ha, Postemergence, scale 0 (no effect) to 10 (complete control)) | S. Flatsedge plant response rating [8, 24] | S. Flatsedge plant response rating [8, 25] | S. Flatsedge plant response rating [8, 26] | S. Flatsedge plant response rating [8, 27] | Plant response rating, Nutsedge [9, 19] | Nutsedge plant response rating [9, 20] | Nutsedge plant response rating [9, 21] | Plant response rating (0 to 10; 0 is no effect, 10 is complete control), Nutsedge ([9]; Rate 250 g/ha, Postemergence) | Nutsedge plant response rating [9, 23] | Ducksalad plant response rating [11, 24] | Ducksalad plant response rating [11, 25] | Ducksalad plant response rating [11, 26] | Ducksalad plant response rating [11, 27] | Rape plant response rating [12, 17] | Rape plant response rating [12, 18] | Rape plant response rating [12, 20] | Rape plant response rating [12, 22] | Redroot pigweed plant response rating [13, 20] | Bedstraw plant response rating [14, 17] | Bedstraw plant response rating [14, 18] | Bedstraw plant response rating [14, 22] | Barnyardgrass plant response rating [15, 24] | Barnyardgrass plant response rating [15, 25] | Barnyardgrass plant response rating [15, 26] | Barnyardgrass plant response rating [15, 27] | Corn plant response rating [16, 17] | Corn plant response rating [16, 18] | Corn plant response rating [16, 20] | Corn plant response rating [16, 21] | Corn plant response rating [16, 22] | Plant response rating (0 to 10; 0 is no effect, 10 is complete control), Corn ([16]; Rate 250 g/ha, Postemergence) | Corn plant response rating [16, 23]
1: Sugarbeets plant response rating [6, 22] | Giant foxtail plant response rating [10, 20] | Rape plant response rating [12, 21] | Redroot pigweed plant response rating [13, 21] | Redroot pigweed plant response rating [13, 22]
4: Soybean plant response rating [1, 21] | Morningglory plant response rating [3, 21] | Sugarbeets plant response rating [6, 23] | B. signalgrass plant response rating [7, 22]
6: Plant response rating, Soybean [1, 19] | Plant response rating (0 to 10; 0 is no effect, 10 is complete control), Soybean ([1]; Rate 250 g/ha, Postemergence) | Sugarbeets plant response rating [6, 18] | B. signalgrass plant response rating ([7]; Preemergence, Rate 250 g/ha, scale 0 to 10, 0 is no effect, 10 is complete control) | Plant response rating (0 to 10; 0 is no effect, 10 is complete control), Rape ([12]; Rate 250 g/ha, Postemergence) | Redroot pigweed plant response rating [13, 17] | Bedstraw plant response rating [14, 20] | Plant response rating, Corn [16, 19]
2: Soybean plant response rating [1, 18] | Soybean plant response rating [1, 22] | Plant response rating, Velvetleaf [2, 19] | Plant response rating (0 to 10; 0 is no effect, 10 is complete control), Velvetleaf ([2]; Rate 250 g/ha, Postemergence) | Sugarbeets plant response rating [6, 20] | Sugarbeets plant response rating [6, 21] | Plant response rating (0 to 10; 0 is no effect, 10 is complete control), Sugarbeets ([6]; Rate 250 g/ha, Postemergence) | Plant response rating, Rape [12, 19]
7: Soybean plant response rating [1, 23] | Plant response rating (0 to 10; 0 is no effect, 10 is complete control), Blackgrass ([4]; Rate 250 g/ha, Postemergence) | Plant response rating, Sugarbeets [6, 19] | Plant response rating, B. signalgrass [7, 19] | B. signalgrass plant response rating ([7]; Rate 500 g/ha, Postemergence, scale 0 to 10, 0 no effect, 10 complete control) | Plant response rating (0 to 10; 0 is no effect, 10 is complete control), Giant foxtail ([10]; Rate 250 g/ha, Postemergence) | Rape plant response rating [12, 23] | Redroot pigweed plant response rating [13, 23]
3: Soybean plant response rating [1, 20] | Morningglory plant response rating [3, 20] | Plant response rating (0 to 10; 0 is no effect, 10 is complete control), B. signalgrass ([7]; Rate 250 g/ha, Postemergence) | Plant response rating (0 to 10; 0 is no effect, 10 is complete control), Redroot pigweed ([13]; Rate 250 g/ha, Postemergence) | Plant response rating, Bedstraw [14, 19]
8: Plant response rating (0 to 10; 0 is no effect, 10 is complete control), Morningglory ([3]; Rate 250 g/ha, Postemergence) | Blackgrass plant response rating [4, 17] | Blackgrass plant response rating [4, 23] | Giant foxtail plant response rating [10, 23] | Redroot pigweed plant response rating [13, 18] | Bedstraw plant response rating [14, 21] | Bedstraw plant response rating [14, 23]
10: Plant response rating, Blackgrass [4, 19] | Giant foxtail plant response rating [10, 18] | Plant response rating, Giant foxtail [10, 19] | Plant response rating, Redroot pigweed [13, 19]
5: Blackgrass plant response rating [4, 20] | Blackgrass plant response rating [4, 21] | Giant foxtail plant response rating [10, 21]
9: Morningglory plant response rating [3, 23] | Blackgrass plant response rating [4, 18] | Blackgrass plant response rating [4, 22] | Giant foxtail plant response rating [10, 17] | Giant foxtail plant response rating [10, 22]
